{"source": "paper PMC7465344", "about": "(Pharmaceuticals, 2020)", "key": {"hA1 AR": {"biological_target": "T1, hA1 AR (Homo sapiens, UniProt P30542)", "T1 sequence (P30542 1-326)": "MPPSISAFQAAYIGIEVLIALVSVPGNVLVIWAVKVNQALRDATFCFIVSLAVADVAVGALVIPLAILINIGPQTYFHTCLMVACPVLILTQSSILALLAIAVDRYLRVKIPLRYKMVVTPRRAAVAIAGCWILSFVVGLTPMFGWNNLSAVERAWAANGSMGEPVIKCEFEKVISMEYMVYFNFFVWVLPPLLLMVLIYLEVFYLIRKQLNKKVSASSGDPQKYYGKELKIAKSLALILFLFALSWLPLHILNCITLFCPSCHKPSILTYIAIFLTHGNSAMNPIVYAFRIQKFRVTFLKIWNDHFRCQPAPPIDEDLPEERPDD", "experiment": "Competition binding of [3H]DPCPX to hA1 AR in CHO cell membranes", "conditions": "for hA1AR Ki: displacement of [3H]DPCPX, CHO cells, mean ± SEM, n = 3–6", "protocol": "(§1) For membrane preparation, the cells were washed with phosphate-buffered saline and scraped off T75 flasks in an ice-cold hypotonic buffer (5 mMTris-HCl, 1 mM EDTA, pH 7.4). The cell suspensions were homogenized with a Polytron, centrifuged for 30 min at 40,000× g at 4 °C and the resulting membrane pellets were used for competition binding experiments [44].\n(§2) Non-specific binding was defined as binding in the presence of 1 μM DPCPX and was always <10% of the total binding [44]. […] Non-specific binding was defined as binding in the presence of 1 μM ABMECA and was always < 10% of the total binding [46]. Bound and free radioactivity were separated by filtering the assay mixture through Whatman GF/B glass fiber filters using a Brandel cell harvester (Brandel Instruments, Unterföhring, Germany).\n(§3) The protein concentration was determined according to a Bio-Rad method with bovine albumin as a standard reference. […] Ki and IC50 values were calculated by the non-linear regression analysis using the equation for a sigmoid concentration-response curve (Graph-PAD Prism, San Diego, CA, USA)."}, "hA2B AR": {"biological_target": "T2, hA2B AR (Homo sapiens, UniProt P29275)", "T2 construct": "expressed in transfected cells; host or cells: CHO cells", "T2 sequence (P29275 1-332)": "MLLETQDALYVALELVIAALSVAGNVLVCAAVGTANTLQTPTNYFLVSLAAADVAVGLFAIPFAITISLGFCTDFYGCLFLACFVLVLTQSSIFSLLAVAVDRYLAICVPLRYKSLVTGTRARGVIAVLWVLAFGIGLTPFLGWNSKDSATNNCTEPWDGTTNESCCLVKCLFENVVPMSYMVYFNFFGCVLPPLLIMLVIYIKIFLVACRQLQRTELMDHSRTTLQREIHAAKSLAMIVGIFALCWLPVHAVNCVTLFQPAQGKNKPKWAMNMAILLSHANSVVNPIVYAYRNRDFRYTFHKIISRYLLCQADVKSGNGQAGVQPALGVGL", "experiment": "Inhibition of NECA stimulated adenylyl cyclase activity (cAMP assay) in CHO cells expressing hA2B receptor", "format": "cell-based", "conditions": "for inhibition at 10 µM: CHO, at 10 μM of tested compound, cAMP assay, read-out: hA2BAR percentage of inhibition (I%); for IC50: NECA stimulated cAMP, hA2B CHO cells, read-out: hA2BAR IC50 (potency in cAMP assay)", "excerpt": "At the end of the experiments, plates were read with the Perkin Elmer EnSight Multimode Plate Reader."}, "hA2A AR": {"biological_target": "hA2A AR (Homo sapiens, UniProt P29274)", "sequence (P29274 whole entry)": "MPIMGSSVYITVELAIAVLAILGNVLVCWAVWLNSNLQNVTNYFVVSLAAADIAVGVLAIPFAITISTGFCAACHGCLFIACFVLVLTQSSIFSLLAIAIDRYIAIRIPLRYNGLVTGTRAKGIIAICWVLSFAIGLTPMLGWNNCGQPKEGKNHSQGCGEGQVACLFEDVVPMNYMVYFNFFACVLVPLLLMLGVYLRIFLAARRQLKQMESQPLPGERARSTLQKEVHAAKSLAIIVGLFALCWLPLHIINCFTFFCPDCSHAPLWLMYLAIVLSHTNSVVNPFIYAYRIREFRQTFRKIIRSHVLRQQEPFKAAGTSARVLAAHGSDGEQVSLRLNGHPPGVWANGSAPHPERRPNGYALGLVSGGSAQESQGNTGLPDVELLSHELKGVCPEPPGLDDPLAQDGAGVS", "experiment": "Competition binding of [3H]ZM241385 to hA2A AR in CHO cell membranes", "protocol": "as §1, §2, §3"}, "hA3 AR": {"biological_target": "T3, hA3 AR (Homo sapiens, UniProt P0DMS8)", "T3 sequence (P0DMS8 1-318)": "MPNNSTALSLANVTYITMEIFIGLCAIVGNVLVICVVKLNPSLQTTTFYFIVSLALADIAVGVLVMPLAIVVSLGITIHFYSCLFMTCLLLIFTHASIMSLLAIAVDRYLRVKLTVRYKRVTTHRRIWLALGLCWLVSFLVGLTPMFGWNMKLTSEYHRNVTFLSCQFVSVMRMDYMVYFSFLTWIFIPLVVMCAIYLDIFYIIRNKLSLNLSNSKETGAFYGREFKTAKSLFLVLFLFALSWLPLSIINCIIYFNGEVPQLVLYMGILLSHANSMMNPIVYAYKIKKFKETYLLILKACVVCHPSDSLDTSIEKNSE", "experiment": "Competition binding of [125I]AB-MECA to hA3 AR in CHO cell membranes", "protocol": "as §1, §2, §3"}}}
{"smiles": "Nc1nc(N2CCN(Cc3ccccc3)CC2)nc2sc(-c3ccco3)nc12", "note": "[compound 3, 5-(4-Benzylpiperazin-1-yl)-2-(furan-2-yl)thiazolo[5,4-d]pyrimidin-7-amine]", "values": [{"measurement": "Ki", "setting": "hA1 AR", "result": "180 ± 15", "unit": "nM"}, {"measurement": "hA1AR Ki", "setting": "hA1 AR", "result": "good affinities"}, {"measurement": "inhibition at 10 µM", "setting": "hA2B AR", "result": 26, "unit": "%"}, {"measurement": "Ki", "setting": "hA2A AR", "result": "58 ± 5", "unit": "nM"}, {"measurement": "Ki", "setting": "hA3 AR", "result": "868 ± 82", "unit": "nM"}, {"measurement": "melting point", "result": "181 to 183", "unit": "°C"}]}
{"smiles": "Nc1nc(N2CCN(CCc3ccccc3)CC2)nc2sc(-c3ccco3)nc12", "note": "[compound 4, 2-(Furan-2-yl)-5-(4-phenethylpiperazin-1-yl)thiazolo[5,4-d]pyrimidin-7-amine]", "values": [{"measurement": "Ki", "setting": "hA1 AR", "result": "1210 ± 114", "unit": "nM"}, {"measurement": "inhibition at 10 µM", "setting": "hA2B AR", "result": 11, "unit": "%"}, {"measurement": "IC50", "setting": "hA2B AR", "result": "> 10000", "unit": "nM"}, {"measurement": "Ki", "setting": "hA2A AR", "result": "237 ± 17", "unit": "nM"}, {"measurement": "Ki", "setting": "hA3 AR", "result": "197 ± 16", "unit": "nM"}, {"measurement": "melting point", "result": "203 to 204", "unit": "°C"}]}
{"smiles": "COc1ccc(CN2CCC(CNc3nc(N)c4nc(-c5ccco5)sc4n3)CC2)cc1", "note": "[compound 20, 2-(Furan-2-yl)-N^5-((1-(4-methoxybenzyl)piperidin-4-yl)methyl)thiazolo[5,4-d]pyrimidine-5,7-diamine]", "values": [{"measurement": "Ki", "setting": "hA1 AR", "result": "152 ± 11", "unit": "nM"}, {"measurement": "hA1AR Ki", "setting": "hA1 AR", "result": "good affinities"}, {"measurement": "inhibition at 10 µM", "setting": "hA2B AR", "result": 24, "unit": "%"}, {"measurement": "IC50", "setting": "hA2B AR", "result": "> 10000", "unit": "nM"}, {"measurement": "Ki", "setting": "hA2A AR", "result": "88 ± 9", "unit": "nM"}, {"measurement": "Ki", "setting": "hA3 AR", "result": "> 10000", "unit": "nM"}, {"measurement": "inhibition at 10 µM", "setting": "hA3 AR; read-out: hA3AR percentage of inhibition (I%)", "result": 29, "unit": "%"}, {"measurement": "melting point", "result": "182 to 183", "unit": "°C"}]}
